For the assay, the system named is U87-luc orthotopic brain xenograft. Briefly: Pharmacodynamic study in U87-luc orthotopic brain xenograft model, median survival. Type of assay: in vivo, BALB/c nude mice. To be noted: for Medium survival: survival time range in brackets. From the text:
Pharmacodynamic study of the compound 17 of this disclosure and the combination of compound 17 of the disclosure and temozolomide in a U87-luc orthotopic brain xenograft model
Adult female BALB/c nude mice were used as test animals. A U87-luc orthotopic brain xenograft model was used to study the effect of representative compound 17 of this disclosure on the median survival of female BALB/c nude mice after intragastric administration.
Healthy adult female BALB/c nude mice, 8 mice/group, 6-8 weeks old, weighing 18-22 g, purchased from Shanghai SIPPR-BK Laboratory Animal Co., Ltd., Animal Production License No: 2008001658261; 2008001658263. • 7.2.3 Preparation of the test compounds
An appropriate amount of compound 17 was weighed, and added with 0.1% hydroxyethyl cellulose/0.5% TWEEN®80 as vehicle to 0.3125 mg/ml;
An appropriate amount of Temozolomide sample was weighed, and added with 0.1% CMC-Na+0.25% TWEEN®80 as vehicle to 0.3 mg/ml.
Adult female BALB/c nude mice were anesthetized by intraperitoneal injection of sodium pentobarbital at a dose of 80 mg/kg. To relieve pain, animals were injected subcutaneously with buprenorphine at the time points 30 minutes before operation and 6 hours after operation at a dose of 0.1 mg/kg. Animals were observed after anesthesia until all animals had awakened.
The anesthetized animals were properly fixed, the animals' head skin was sterilized with 70% ethanol, and an approximately 10 mm long incision was made on the right side of the midline from the forehead to the ear line. 3×10^5 U87-luc cells (3 μl, mixture of PBS and Matrigel at a ratio of 4:1) were inoculated at the right frontal lobe that is 2 mm away from the right side of the bregma and is 1 mm away from the front side of the coronal suture in each animal. The incision was sutured with a No. 6 suture, and sterilized with polyvinylpyrrolidone. Animals are kept warm until anabiosis. Six days after tumor cell transplantation, tumor animals were grouped by stratified randomization based on […] signal intensity values, and the average bioluminescence reached 2.812E+07 photons/sec when the groups were administered in groups. Different animal groups were administered at different doses for a total of 35 days.

The record followed here is patent US11091476B2, “Protein kinase inhibitors, preparation method and medical use thereof” (Gan & Lee Pharmaceuticals, priority 2015, dated 2021).

For the molecule `CC1=Nc2c(F)cc(-c3nc(Nc4ccc(C5CCN(C)CC5)cn4)ncc3F)cc2C12CCCC2` [Example 17, 5-Fluoro-4-(7′-fluoro-2′-methylspiro[cyclopentane-1,3′-indol]-5′-yl)-N-(5-(1-methylpiperidin-4-yl)pyridin-2-yl)pyrimidine-2-amino], the Medium survival is given as 38.5(26-59) days (3.125 mg/kg QD intragastric); 43.5(31-48) days (6.25 mg/kg QD intragastric); 44.5(31-114) days (12.5 mg/kg QD intragastric); 61(41-76) days (25 mg/kg QD intragastric); 78.5(63->114) days (50 mg/kg QD intragastric). Further, the “Effect on median survival, in words” value (dose-dependent) is recorded as “significantly prolong the median survival”.
